# Laboratory results reported in patent US20150217006A1, “AL-F-18-LABELED, AL-F-19-LABELED AND GA-68-LABELED GASTRIN-RELEASING PEPTIDE RECEPTOR (GRPR)-ANTAGONISTS FOR IMAGING OF PROSTATE CANCER” (Immunomedics, Inc., priority 2014, published 2015).
# Where two headings read alike, the source gives them in different places. Residues, ends and D or L forms follow the SMILES beside them.
# Key:
# [1] = tested on: GRPR-positive PC-3 tumors; experiment: Small-animal PET/CT and biodistribution in mice bearing s.c. PC-3 xenografts; conditions: for tumor uptake after co-injection of excess unlabeled peptide (GRPR-specificity): co-injection of 100-fold excess of unlabeled JMV4168 or JMV5132
# Procedure: (§1) 2-3 weeks after inoculation, when tumor size averaged 200 mm^3, mice were injected intravenously with 5-10 MBq of radiolabeled peptide (200 pmol, 200 μL). To determine the receptor-mediated localization of the radiolabeled peptides, additional animals were co-injected with an excess (20 nmol) of unlabeled peptide. Mice were euthanized 1 h or 2 h post injection (p.i.) by CO2/O2 asphyxiation. Mice were first scanned in prone position on a small animal PET/CT scanner (Inveon; Siemens Preclinical Solutions). PET emission scans were acquired for 30-60 min, followed by a CT scan (spatial resolution 113.15 μm; 80 kV; and 500 μA). Scans were reconstructed using Inveon Acquisition Workplace software (version 1.5; Siemens Preclinical Solutions), using a 3-dimensional ordered-subset expectation maximization/maximization a posteriori algorithm with the following parameters: matrix, 256×256×161; pixel size, 0.40×0.40×0.796 mm; and β-value, 1.5, with uniform variance and FastMAP. After scanning, blood, tumor, and relevant organs and tissues were collected, weighed and counted in a γ-counter. The percentage injected dose per gram (% ID/g) was determined for each tissue sample.
# (§2) Statistical analysis was performed using GraphPad Prism version 5.01 (San Diego, Calif., USA). […] Statistical analysis on biodistribution data was performed using a 1-way ANOVA with a Bonferroni post-hoc test, and the level of significance was set at P less than 0.05.
# [2] = as above; conditions: male, nude BALB/c, mouse, iv, 200 pmol, total radioactivity, 200 pmol
# Procedure: as §1, §2
# [3] = Octanol/water partition coefficient; type: physicochemical; conditions: pH 7.4, octanol / PBS pH 7.4, n=3; read-out: log P octanol/water
# Procedure: Octanol/Water Partition Coefficient The radiolabeled peptide (1 MBq) was diluted in 500 μL phosphate-buffered saline (pH 7.4) and mixed vigorously with 500 μL octanol for 2 min using a vortex mixer. The two layers were separated by centrifugation (1000 rpm, 5 min).
# [4] = tested on: GRPR-positive PC-3 tumors; conditions: mouse, in vivo
# Procedure: as §1, §2
# [5] = molecular target: T1, PC-3 cells (gastrin-releasing peptide receptor) (Homo sapiens, UniProt P30550); experiment: Blocking of 125I-Bombesin binding to PC-3 cells; conditions: 56 to 0.44 nM
# T1 construct: 3×10^6 PC-3 cells were exposed to a constant amount (˜50,000 cpms) of ^125I-Bombesin; endogenous in cells; host or cells: PC-3 cells
# T1 sequence (P30550 whole entry): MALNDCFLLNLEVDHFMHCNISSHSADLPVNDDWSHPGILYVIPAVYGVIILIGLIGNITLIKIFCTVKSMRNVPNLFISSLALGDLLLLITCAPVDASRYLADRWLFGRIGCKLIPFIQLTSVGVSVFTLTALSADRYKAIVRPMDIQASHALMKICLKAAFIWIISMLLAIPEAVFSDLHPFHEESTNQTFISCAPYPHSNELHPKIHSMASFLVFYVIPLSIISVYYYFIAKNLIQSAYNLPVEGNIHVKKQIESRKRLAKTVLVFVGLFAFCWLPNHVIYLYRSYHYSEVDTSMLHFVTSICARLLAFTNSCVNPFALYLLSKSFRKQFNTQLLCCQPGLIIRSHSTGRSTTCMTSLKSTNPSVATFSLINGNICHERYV
# Procedure: A NOTA-conjugated bombesin derivative (IMP468) was prepared as described above. […] Our initial experiment was to determine if IMP468 could specifically block bombesin from binding to PC-3 cells. We used IMP333 as a non-specific control. […] A range of 56 to 0.44 nM was used as our inhibitory concentrations.
# This experiment was repeated using a commercially available BBN peptide.
# [6] = in vivo; conditions: male, nude BALB/c, mouse, iv, 200 pmol, total radioactivity, uptake in PC-3 tumors
# Procedure: as §1, §2
# [7] = male, nude BALB/c, iv, 200 pmol, 2 h
smiles,measurement,setting,value
"CC(C)C[C@H](NC(=O)C[C@H](O)[C@H](CC(C)C)NC(=O)[C@H](Cc1c[nH]cn1)NC(=O)CNC(=O)[C@@H](NC(=O)[C@H](C)NC(=O)[C@H](Cc1c[nH]c2ccccc12)NC(=O)[C@H](CCC(N)=O)NC(=O)[C@@H](Cc1ccccc1)NC(=O)CCNC(=O)CCNC(=O)CN1CCN(CC(=O)O)CCN(CC(=O)O)CCN(CC(=O)O)CC1)C(C)C)C(N)=O [^68Ga-JMV4168, metal not drawn]",pancreas uptake decreased by a factor,[1]; from 1 h to 2 h p.i.,6.1
same,clearance / excretion route,[1]; mice with s.c. PC-3 xenografts,exclusively via the kidney
same,tissue uptake at 2 h,"[2]; PC-3 tumor, uptake in PC-3 tumors, 2 h after injection, i.v.",5.96 ± 1.39 %ID/g
same,tissue uptake at 2 h,"[2]; blood, remaining in blood, 2 h p.i.",0.09 ± 0.04 %ID/g
same,logP,[3],-2.53 ± 0.04
CC(C)C[C@H](NC(=O)C[C@H](O)[C@H](CC(C)C)NC(=O)[C@H](Cc1c[nH]cn1)NC(=O)CNC(=O)[C@@H](NC(=O)[C@H](C)NC(=O)[C@H](Cc1c[nH]c2ccccc12)NC(=O)[C@H](CCC(N)=O)NC(=O)[C@@H](Cc1ccccc1)NC(=O)CCNC(=O)CCNC(=O)Cc1ccc(CN2CCN(CC(=O)O)CCN(CC(=O)O)CC2)cc1)C(C)C)C(N)=O [Al^18F-JMV5132],tumor uptake after co-injection of excess unlabeled peptide (GRPR-specificity),[1],significantly reduced
same,remaining in blood,[4]; [7],0.05±0.01 % ID/g
same,uptake in PC-3 tumors,[4]; [7],5.30±0.98 % ID/g
CSCC[C@H](NC(=O)[C@H](CC(C)C)NC(=O)[C@H](Cc1c[nH]cn1)NC(=O)CNC(=O)[C@@H](NC(=O)[C@H](C)NC(=O)[C@H](Cc1c[nH]c2ccccc12)NC(=O)[C@@H](NC(=O)[C@H](Cc1c[nH]c2ccccc12)NC(=O)[C@H](CCC(N)=O)NC(=O)CCCCCCCNC(=O)CN1CCN(CC(=O)O)CCN(CC(=O)O)CC1)C(C)C)C(C)C)C(N)=O [IMP468] (HELM PEPTIDE1{[O=C(O)CN1CCN(CC(=O)O)CCN(CC(=O)[*:2])CC1].[O=C(CCCCCCCN[*:1])[*:2]].Q.W.V.W.A.V.G.H.L.M.[am]}$$$$V2.0),block the binding of 125I-BBN,[5],could block
"CC(C)C[C@H](NC(=O)C[C@H](O)[C@H](CC(C)C)NC(=O)[C@H](Cc1c[nH]cn1)NC(=O)CNC(=O)[C@@H](NC(=O)[C@H](C)NC(=O)[C@H](Cc1c[nH]c2ccccc12)NC(=O)[C@H](CCC(N)=O)NC(=O)[C@@H](Cc1ccccc1)NC(=O)CCNC(=O)CCNC(=O)Cc1ccc(CN2CCN(CC(=O)O)CCN(CC(=O)O)CC2)cc1)C(C)C)C(N)=O [^68Ga-JMV5132, metal not drawn]",tissue uptake at 2 h,[6],5.24 ± 0.29 %ID/g
same,tumor uptake after co-injection of excess unlabeled peptide (GRPR-specificity),[1],significantly reduced
same,remaining in blood,[4]; [7],0.19±0.13 % ID/g
same,clearance / excretion route,[4],partially hepatobiliary
